Reference: PMC12010006, “Subnanomolar MAS-related G protein-coupled receptor-X2/B2 antagonists with efficacy in human mast cells and disease models” (Signal Transduction and Targeted Therapy, 2025)
Entries after “also recorded” stand apart in the source; their conditions may differ.

What was measured:
[1] = molecular target: T1, MRGPRX2 (Homo sapiens, UniProt Q96LB1); assay: TRUPATH Gαq dissociation assay, LN229 cells expressing MRGPRX2; format: cell-based; parameters: expressed in transfected cells; host or cells: LN229 human glioblastoma cells; plasmid pLXSN-MRGPRX2 (Addgene #213960); conditions: 100 nM, preincubation
T1 sequence (Q96LB1 1-330): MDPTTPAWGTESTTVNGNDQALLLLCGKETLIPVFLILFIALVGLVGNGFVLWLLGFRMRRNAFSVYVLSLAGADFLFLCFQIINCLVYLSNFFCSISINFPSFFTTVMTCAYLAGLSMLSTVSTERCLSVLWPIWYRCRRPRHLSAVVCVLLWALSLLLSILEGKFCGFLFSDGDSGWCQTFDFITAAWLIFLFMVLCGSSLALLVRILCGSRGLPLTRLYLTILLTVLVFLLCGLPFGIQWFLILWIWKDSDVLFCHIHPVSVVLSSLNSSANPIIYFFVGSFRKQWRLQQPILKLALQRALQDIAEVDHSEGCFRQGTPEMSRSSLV
Protocol: Fig. 3 Biological characterization of PSB-172656. a Selectivity of PSB-172656 (100 nM) for MRGPRX2 over MRGPRX1, MRGPRX3, and MRGPRX4 measured in β-arrestin assays utilizing β-arrestin-CHO cells with recombinant expression of the respective receptor. MRGPRX1 was activated by BAM-22P (8.5 µM),[19] MRGPRX2 was activated by CST-14 (1 µM), MRGPRX3 was activated by PSB-20294 (10 µM), MRGPRX4 was activated by PSB-18061 (2.6 µM).[44] Data represent mean values ± SEM of 3-4 biological replicates, performed in duplicates. […] Data are means ± SEM of 3 biological replicates, in duplicates. Statistical significance was determined by one-way ANOVA (Tukey’s multiple comparison) test (ns P > 0.05). […] Data are means ± SEM of 3 biological replicates, performed in duplicates. e Shift assay to determine inhibition type of PSB-172656 versus CST-14. […] Extrapolated data were not used for analysis but only shown for a comprehensive view. f Schild plot for the effect of PSB-172656 on the concentration-response curves for CST-14. […]
To further investigate PSB-172656 signaling, direct activation of the relevant G protein subunits, Gαq and Gαi1,[32] was studied. This was assessed using G protein dissociation assays and LN229 cells stably overexpressing MRGPRX2 while transiently expressing the investigated G protein (Fig. 3c, d).[47]

[2] = MTT cytotoxicity assay, 1321N1 astrocytoma cells; format: cell-based; conditions: human
Protocol: Potential cytotoxicity of 24 and its similarly potent analogs 27 and 30 was assessed in 3-(4,5-dimethylthiazol-2-yl)-2,5-diphenyl-2H-tetrazolium bromide (MTT) assays performed on human 1321N1 astrocytoma cells (Supplementary Table S3). This cell line was chosen since it is well-established for the screening of cytotoxic drugs, making it a reliable choice for assessing cytotoxicity.[46]
For the experiment, 1321N1 astrocytoma cells were seeded at a density of 1 × 10^5 cells/well in 180 µL of cell medium into transparent 96-well plates, whereby the outer wells only contained buffer (to avoid an edge effect). Cells were incubated for 24 h at 37°C, 5% CO2. Compound dilutions were prepared in DMSO. […] Subsequently, 20 µL of these compound dilutions were added to each well so that astrocytoma cells were incubated with varying concentrations of MRGPRX2 antagonists (0.01 µM–10 µM) at 37° C, 5% CO2. 5-Fluoruracil, a cytostatic drug, served as a positive control. Medium-containing DMSO in the absence of a compound served as a negative control. After 71 h, […] of MTT solution (5 mg/mL, prepared in Millipore water) was added to each well (final concentration 0.5 mg/mL) and cells were incubated again for another hour. Subsequently, the medium was removed, and cells were lyzed by adding 100 µL of DMSO per well. In order to dissolve the produced formazan dye crystals, plates were incubated for 2 min on a rotary shaker (150 rpm). Afterward, the UV absorbance at 570 nm was measured by using SoftMax® Pro5.1 Microplate Data Acquisition & Analysis Software (Molecular Devices, Sunnyvale, CA, USA). The UV absorbance at 690 nm was measured directly afterward to eliminate the background absorbance of residual medium and cell components. The values of the measured UV absorbance at 690 nm were subtracted from the values obtained by the measurement of UV absorbance at 570 nm. Three to four independent experiments were performed, each in triplicate.

[3] = molecular target: T1, MRGPRX2; assay: Ca2+ mobilization in LAD2 cells; format: cell-based; conditions: stimulation with clomipramine (16.0 µM), paroxetine (18.1 µM), desipramine (34.4 µM); listed as PSB-172656
Text: PSB-172656 inhibited MRGPRX2-mediated Ca^2+ mobilization in LAD2 cells (see Supplementary Fig. S4).
Blocking of MRGPRX2 by the selective antagonist PSB-172656. […] Arrows indicate addition of stimulus; graphs represent means ± SEM of three independent experiments.

[4] = tested on: C48/80-induced hind paw edema; assay: Local allergic reaction (hind paw edema); format: in vivo, mouse; conditions: 50 mg/kg b.w., i.p.; C48/80 20 µL of 30 µg/mL into right hind paw; listed as PSB-172656
Protocol: PSB-172656 was further investigated in a mouse model of skin inflammation,[54] determining its effects on C48/80-induced hind paw edema. […] These findings indicate a strong anti-inflammatory effect of the MRGPRX2/B2 antagonist in this mouse model. Mice were given the antagonist PSB-172656 intraperitoneally at a dose of 50 mg/kg b.w. or vehicle (2% DMSO). The volume of the paws (both right (test) and left (control)) was measured using a plethysmometer (7140, UgoBasile, Italy). After 30 min, 20 µL of C48/80 (30 µg/mL) were injected into the right paw and 20 µL of 0.9% NaCl into the left paw. After 15 min, paw thickness was measured again. Mice were then killed by dislocation of cervical vertebrae. The mouse model has been described previously.[54],[69]

[5] = tested on: muscarinic acetylcholine receptors (mAChRs); assay: Ca2+ assay versus carbachol in LN229-MRGPRX2 cell line; format: cell-based, human; conditions: 10 µM, carbachol 100 µM

Row | Structure (SMILES) | inhibition of CST-14-induced Gαq dissociation [1] | CC50 at 72 h [2] [µM] | cytotoxicity at 72 h, 10000 nM ([2]; up to 10,000 nM, read-out: Cytotoxicity % effect) [%] | effect on MRGPRX2-mediated Ca2+ mobilization in LAD2 cells [3] | effect on C48/80-induced paw swelling [4] | inhibition of signal induced by carbachol [5]
1 | CCc1c(C(C)C)[nH]c2nc3cc(F)c(F)cc3n2c1=O [Compound 24, 3-ethyl-7,8-difluoro-2-isopropylbenzo[4,5]imidazo [1,2-a] pyrimidin-4(1H)-one] | completely inhibited | > 10 | 41 | decreased Ca^2+ mobilization; also recorded: inhibited | significant decrease in paw swelling; also recorded: prevents or reduces edema formation | –
2 | CCCc1c(C)[nH]c2nc3ccccc3n2c1=O [Compound 1, 2-methyl-3-propylbenzo[4,5]imidazo[1,2-a]pyrimidin-4(1H)-one] | – | – | – | – | – | did not inhibit
